Results as given in ChEMBL document CHEMBL5338712, “Influence of chain length on the anticancer activity of the antimicrobial peptide CAMEL with fatty acid modification” (Eur J Med Chem, 2022).
In brackets after ≈: the same amount, converted by molar mass. Activity calls are given as the source filed them. The calls are words filed in the database; no cut-off is given here. Where a SMILES comes first, the peptide text is derived from it. The star is where a group is joined. Palmitoyl = CCCCCCCCCCCCCCCC(=O)*; Lauroyl = CCCCCCCCCCCC(=O)*; Decanoyl = CCCCCCCCCC(=O)*; Octanoyl = CCCCCCCC(=O)*; Cbz = O=C(OCc1ccccc1)*; Butyryl = CCCC(=O)*; CH2F = FC*

Tests used:
B16-F10 [1] = test: Cytotoxicity against mouse B16-F10 cells assessed as reduction in cell viability measured after 1 hrs by MTT assay; type: functional, cell-based; conditions: dose 1.25-20 µM
B16-F10 [2] = test: Cytotoxicity against mouse B16-F10 cells assessed as reduction in cell viability at 1.25 to 20 uM measured after 24 hrs by MTT assay; type: functional, cell-based; conditions: dose 1.25-20 µM
Escherichia coli = test: Antibacterial activity against Escherichia coli ATCC 25922 assessed as reduction in bacterial growth measured for 18 hrs by serial dilution method; type: functional
Staphylococcus aureus = test: Antibacterial activity against Staphylococcus aureus ATCC […] assessed as reduction in bacterial growth measured for 18 hrs by serial dilution method; type: functional
trypsin = trypsin (Homo sapiens, UniProt P07477+P07478+P35030); test: Stability of compound assessed as trypsin (unknown origin)-mediated compound degradation measured upto 6 hrs by RP-HPLC analysis; type: ADME, protein assay; conditions: trypsin (enzyme solution), read-out: Drug degradation
B16-F10 [3] = test: Membrano-lytic activity in mouse B16-F10 cell membrane measured after 1 hr by LDH leakage assay; type: cell-based; conditions: dose 1.25-20 µM
B16-F10 [4] = test: Membrano-lytic activity in mouse B16-F10 cell membrane at 1.25 to 20 uM measured after 1 hr by LDH leakage assay; type: cell-based; conditions: dose 1.25-20 µM
B16-F10 [5] = test: Cytotoxicity against mouse B16-F10 cells assessed as induction of cell death measured for 4 to 24 hrs by MTT assay; type: functional, cell-based; conditions: time 4-24 hrs
[6] = Self-assembly behavior of compound in saline solution assessed as critical micelle concentration by spectrophotometer analysis; type: physicochemical; conditions: buffer
B16-F10 [7] = test: Cytotoxicity against mouse B16-F10 cells assessed as reduction in cell viability at 1.25 to 20 uM by MTT assay; type: functional, cell-based; conditions: dose 1.25-20 µM, time 1-72 hrs, TDE = time-dependent effect
B16-F10 [8] = test: Cytotoxicity against mouse B16-F10 cells assessed as reduction in cell viability at 1.25 to 20 uM measured after 72 hrs by MTT assay; type: functional, cell-based; conditions: dose 1.25-20 µM
B16-F10 [9] = test: Membrano-lytic activity in mouse B16-F10 cell membrane at 20 uM by LDH leakage assay; type: cell-based; conditions: time 0.5-4 hrs, TDE = time-dependent effect
B16-F10 [10] = test: Disruption of membrane integrity in mouse B16-F10 cells at 10 uM measured at 4 to 24 hrs by propidium iodide staining based laser scanning microscopic analysis; type: cell-based; conditions: time 4-24 hrs
B16-F10 [11] = test: Induction of necrotic cell death in mouse B16-F10 at 10 uM measured after 1 to 24 hrs; type: functional, cell-based; conditions: time 1-24 hrs
B16-F10 [12] = test: Induction of morphological changes in mouse B16-F10 cells assessed as cell rounding at 20 uM incubated for 30 mins by microscopic analysis; type: functional, cell-based
B16-F10 [13] = test: Induction of morphological changes in mouse B16-F10 cells assessed as cell swelling at 20 uM incubated for 30 mins by microscopic analysis; type: functional, cell-based
B16-F10 [14] = test: Induction of morphological changes in mouse B16-F10 cells assessed as cell bursting at 20 uM incubated for 30 mins by microscopic analysis; type: functional, cell-based
B16-F10 [15] = test: Induction of cell membrane disruption in mouse B16-F10 cells at 20 uM measured for 30 mins by PI staining based microplate reader assay
B16-F10 [16] = test: Induction of mitochondrial membrane potential loss in mouse B16-F10 cells assessed as decrease in fluorescence intensity at 10 uM measured at 0.5 to 4 hrs by flow cytometry analysis; type: functional, cell-based; conditions: time 0.5-4 hrs
B16-F10 [17] = test: Induction of mitochondrial membrane potential loss in mouse B16-F10 cells at 10 uM by flow cytometry analysis; type: functional, cell-based; conditions: time 0.5-4 hrs, TDE = time-dependent effect
B16-F10 [18] = test: Induction of ROS production in mouse B16-F10 cells at 10 uM measured for 0.5 to 4 hrs by MitoSOX red dye based microplate reader analysis; type: functional, cell-based; conditions: time 0.5-4 hrs
B16-F10 [19] = test: Induction of ROS production in mouse B16-F10 cells at 10 uM measured for 0.5 to 4 hrs by DCFH-DA dye based microplate reader analysis; type: functional, cell-based; conditions: time 0.5-4 hrs
B16-F10 [20] = test: Antiproliferative activity against mouse B16-F10 cells assessed as inhibition of cell viability by measuring ATP level at 10 uM measured for 4 to 24 hrs; type: functional, cell-based; conditions: time 4-24 hrs
B16-F10 [21] = test: Induction of apoptosis in mouse B16-F10 cells assessed as activation of caspase-3 incubated for 24 hrs by microplate reader analysis; type: functional, cell-based
B16-F10 [22] = test: Induction of necroptosis in mouse B16-F10 cells assessed as increase in ROS level; type: functional, cell-based
B16-F10 [23] = test: Induction of apoptosis in mouse B16-F10 cells assessed as decrease in ATP level; type: functional, cell-based
B16-F10 [24] = test: Induction of necroptosis in mouse B16-F10 cells assessed as cell death at 5 to 20 uM measured for 4 to 24 hrs in presence of Nec-1; type: functional, cell-based; conditions: dose 5-20 µM, time 4-24 hrs
B16-F10 [25] = test: Induction of cell cycle arrest in mouse B16-F10 cells assessed as accumulation at G0/G1 phase at 10 uM and measured after 24 hrs PI staining based by flow cytometry; type: functional
B16-F10 [26] = test: Antitumor activity against mouse B16-F10 cells implanted in intratumorally dosed C57BL/6 mouse assessed as reduction in tumor volume administered for 3 days by vernier caliper method; type: functional, organism-based; conditions: time 3.0 day
[27] = Toxicity in C57BL/6 […] mouse implanted with mouse B16-F10 cells assessed as animal death administered intratumorally; type: cell-based; conditions: in vivo, other, route it(Intratumoral)
B16-F10 [28] = test: Membrano-lytic activity in mouse B16-F10 cell membrane at 1.25 to 20 uM measured after 4 hr by LDH leakage assay; type: cell-based; conditions: dose 1.25-20 µM
B16-F10 [29] = test: Membrano-lytic activity in mouse B16-F10 cell membrane at 20 uM measured at 1 hr by LDH leakage assay; type: cell-based
B16-F10 [30] = test: Induction of cell membrane disruption in mouse B16-F10 cells at 20 uM by PI staining based microplate reader assay; conditions: time 30.0 min, TDE = time-dependent effect

SMILES	Activity (B16-F10 [1])	Activity (B16-F10 [2])	MIC (Escherichia coli)	MIC (Staphylococcus aureus)	metabolised at 6 h (trypsin)	Activity (B16-F10 [3])	Activity (B16-F10 [4])	Activity (B16-F10 [5])	CMC [6]	Activity (B16-F10 [11])	Activity (B16-F10 [12])	Activity (B16-F10 [13])	Activity (B16-F10 [14])	Activity (B16-F10 [15])	Activity (B16-F10 [16])	Activity (B16-F10 [17])	Activity (B16-F10 [18])	Activity (B16-F10 [19])	Activity (B16-F10 [20])	Activity (B16-F10 [21])	further results
CCCC(=O)N[C@@H](CCCCN)C(=O)N[C@@H](Cc1c[nH]c2ccccc12)C(=O)N[C@@H](CCCCN)C(=O)N[C@@H](CC(C)C)C(=O)N[C@@H](Cc1ccccc1)C(=O)N[C@@H](CCCCN)C(=O)N[C@@H](CCCCN)C(=O)N[C@H](C(=O)NCC(=O)N[C@@H](C)C(=O)N[C@H](C(=O)N[C@@H](CC(C)C)C(=O)N[C@@H](CCCCN)C(=O)N[C@H](C(=O)N[C@@H](CC(C)C)C(N)=O)C(C)C)C(C)C)[C@@H](C)CC (Butyryl-KWKLFKKIGAVLKVL-NH2)	Dose-Dependent Effect	Active	4 µM (≈ 7.36 µg/mL)	2 µM (≈ 3.68 µg/mL)	100%	Dose-Dependent Effect	Active	–	–	–	–	–	–	–	–	–	–	–	–	–	–
COC(=O)C[C@H](NC(=O)[C@H](C)NC(=O)[C@@H](NC(=O)OCc1ccccc1)C(C)C)C(=O)CF (Cbz-Val-Ala-Asp(OMe)-CH2F)	–	–	–	–	–	–	–	Active	–	–	–	–	–	–	–	–	–	–	–	–	–
CCCCCCCCCC(=O)N[C@@H](CCCCN)C(=O)N[C@@H](Cc1c[nH]c2ccccc12)C(=O)N[C@@H](CCCCN)C(=O)N[C@@H](CC(C)C)C(=O)N[C@@H](Cc1ccccc1)C(=O)N[C@@H](CCCCN)C(=O)N[C@@H](CCCCN)C(=O)N[C@H](C(=O)NCC(=O)N[C@@H](C)C(=O)N[C@H](C(=O)N[C@@H](CC(C)C)C(=O)N[C@@H](CCCCN)C(=O)N[C@H](C(=O)N[C@@H](CC(C)C)C(N)=O)C(C)C)C(C)C)[C@@H](C)CC (Decanoyl-KWKLFKKIGAVLKVL-NH2)	–	–	–	–	–	–	–	–	32.61 µM	–	–	–	–	–	–	–	–	–	–	–	–
CCCCCCCC(=O)N[C@@H](CCCCN)C(=O)N[C@@H](Cc1c[nH]c2ccccc12)C(=O)N[C@@H](CCCCN)C(=O)N[C@@H](CC(C)C)C(=O)N[C@@H](Cc1ccccc1)C(=O)N[C@@H](CCCCN)C(=O)N[C@@H](CCCCN)C(=O)N[C@H](C(=O)NCC(=O)N[C@@H](C)C(=O)N[C@H](C(=O)N[C@@H](CC(C)C)C(=O)N[C@@H](CCCCN)C(=O)N[C@H](C(=O)N[C@@H](CC(C)C)C(N)=O)C(C)C)C(C)C)[C@@H](C)CC (Octanoyl-KWKLFKKIGAVLKVL-NH2)	Dose-Dependent Effect	Active	8 µM (≈ 15.2 µg/mL)	4 µM (≈ 7.59 µg/mL)	70.2%	Dose-Dependent Effect	Active	–	–	–	–	–	–	–	–	–	–	–	–	–	–
CCCCCCCCCCCCCCCC(=O)N[C@@H](CCCCN)C(=O)N[C@@H](Cc1c[nH]c2ccccc12)C(=O)N[C@@H](CCCCN)C(=O)N[C@@H](CC(C)C)C(=O)N[C@@H](Cc1ccccc1)C(=O)N[C@@H](CCCCN)C(=O)N[C@@H](CCCCN)C(=O)N[C@H](C(=O)NCC(=O)N[C@@H](C)C(=O)N[C@H](C(=O)N[C@@H](CC(C)C)C(=O)N[C@@H](CCCCN)C(=O)N[C@H](C(=O)N[C@@H](CC(C)C)C(N)=O)C(C)C)C(C)C)[C@@H](C)CC (Palmitoyl-KWKLFKKIGAVLKVL-NH2)	Dose-Dependent Effect	Active	> 128 µM	> 128 µM	8.7%	Dose-Dependent Effect	Active	inactive	4.95 µM	Active	Active	Active	Active	Active	Active	Tde	Active	Active	Active	inactive	Activity (B16-F10 [7]): Tde; Activity (B16-F10 [8]): Active; Activity (B16-F10 [9]): Tde; Activity (B16-F10 [10]): Active; Activity (B16-F10 [22]): Active; Activity (B16-F10 [23]): inactive; Activity (B16-F10 [24]): Active; Activity (B16-F10 [25]): inactive; Activity (B16-F10 [26]): Active; Activity [27]: Non-Toxic
CCCCCCCCCCCC(=O)N[C@@H](CCCCN)C(=O)N[C@@H](Cc1c[nH]c2ccccc12)C(=O)N[C@@H](CCCCN)C(=O)N[C@@H](CC(C)C)C(=O)N[C@@H](Cc1ccccc1)C(=O)N[C@@H](CCCCN)C(=O)N[C@@H](CCCCN)C(=O)N[C@H](C(=O)NCC(=O)N[C@@H](C)C(=O)N[C@H](C(=O)N[C@@H](CC(C)C)C(=O)N[C@@H](CCCCN)C(=O)N[C@H](C(=O)N[C@@H](CC(C)C)C(N)=O)C(C)C)C(C)C)[C@@H](C)CC (Lauroyl-KWKLFKKIGAVLKVL-NH2)	Dose-Dependent Effect	Active	8 µM (≈ 15.6 µg/mL)	8 µM (≈ 15.6 µg/mL)	18.9%	Dose-Dependent Effect	–	inactive	7.16 µM	Active	Active	Active	Active	Active	Active	Tde	Active	Active	Active	inactive	Activity (B16-F10 [28]): Active; Activity (B16-F10 [29]): Active; Activity (B16-F10 [30]): Tde; Activity (B16-F10 [22]): Active; Activity (B16-F10 [23]): inactive; Activity (B16-F10 [24]): Active; Activity (B16-F10 [25]): inactive; Activity (B16-F10 [26]): Active; Activity [27]: Non-Toxic
